# Values of other authors in article PMC6311693 (ACS Central Science, 2018).
# Conditions: 8 mg/kg; musculoskeletal system, increases in creatine phosphokinase
structure (smiles),measurement,value
CCCCCCCCCC(=O)N[C@@H](Cc1c[nH]c2ccccc12)C(=O)N[C@H](CC(N)=O)C(=O)N[C@@H](CC(=O)O)C(=O)N[C@@H]1C(=O)NCC(=O)N[C@@H](CCCN)C(=O)N[C@@H](CC(=O)O)C(=O)N[C@H](C)C(=O)N[C@@H](CC(=O)O)C(=O)NCC(=O)N[C@H](CO)C(=O)N[C@@H]([C@H](C)CC(=O)O)C(=O)N[C@@H](CC(=O)c2ccccc2N)C(=O)O[C@@H]1C [daptomycin],adverse effects in phase 1 clinical trials,unacceptable adverse effects
